Experimental data published in patent US7863289B2, “Compounds and methods for kinase modulation, and indications therefor” (Plexxikon, Inc., priority 2006, dated 2011).
pIC50: −log10 of the molar value.

Legend:
Assay type in all cases: biochemical
Kit = Kit (Homo sapiens, UniProt P10721); experiment: Kinase activity assay, Kit; details: under the test conditions employed; read-out: activity toward kinase Kit, IC50
Description: (§1) Assays for the activity of kinases, including, but not limited to, B-Raf, B-Raf V600E, B-Raf […] and c-Raf-1 are known in the art, for example as described in U.S. patent application Ser. No. 11/473,347 (see Iso, PCT publication WO2007002433), the disclosure of which is hereby incorporated by reference in its entirety.

Kdr = Kdr (Homo sapiens, UniProt P35968); experiment: Kinase activity assay, Kdr; details: under the test conditions employed; read-out: activity toward kinase Kdr, IC50
Description: as §1

Fms = Fms (Homo sapiens, UniProt P07333); experiment: Kinase activity assay, Fms; details: under the test conditions employed; read-out: activity toward kinase Fms, IC50
Description: as §1

B-Raf V600E = B-Raf V600E (Homo sapiens, UniProt P15056, V600E); experiment: Kinase activity assay, B-Raf V600E; details: under the test conditions employed; read-out: activity toward kinase B-Raf V600E, IC50
Description: as §1

B-Raf = B-Raf (Homo sapiens, UniProt P15056); experiment: Kinase activity assay, B-Raf; details: under the test conditions employed; read-out: activity toward kinase B-Raf, IC50
Description: as §1

c-Raf-1 = c-Raf-1 (Homo sapiens, UniProt P04049); experiment: Kinase activity assay, c-Raf-1; details: under the test conditions employed; read-out: activity toward kinase c-Raf-1, IC50
Description: as §1

Src = Src (Homo sapiens, UniProt P12931); experiment: Kinase activity assay, Src; details: under the test conditions employed; read-out: activity toward kinase Src, IC50
Description: as §1

Measured: pIC50

Fms, sequence (P07333 20-972): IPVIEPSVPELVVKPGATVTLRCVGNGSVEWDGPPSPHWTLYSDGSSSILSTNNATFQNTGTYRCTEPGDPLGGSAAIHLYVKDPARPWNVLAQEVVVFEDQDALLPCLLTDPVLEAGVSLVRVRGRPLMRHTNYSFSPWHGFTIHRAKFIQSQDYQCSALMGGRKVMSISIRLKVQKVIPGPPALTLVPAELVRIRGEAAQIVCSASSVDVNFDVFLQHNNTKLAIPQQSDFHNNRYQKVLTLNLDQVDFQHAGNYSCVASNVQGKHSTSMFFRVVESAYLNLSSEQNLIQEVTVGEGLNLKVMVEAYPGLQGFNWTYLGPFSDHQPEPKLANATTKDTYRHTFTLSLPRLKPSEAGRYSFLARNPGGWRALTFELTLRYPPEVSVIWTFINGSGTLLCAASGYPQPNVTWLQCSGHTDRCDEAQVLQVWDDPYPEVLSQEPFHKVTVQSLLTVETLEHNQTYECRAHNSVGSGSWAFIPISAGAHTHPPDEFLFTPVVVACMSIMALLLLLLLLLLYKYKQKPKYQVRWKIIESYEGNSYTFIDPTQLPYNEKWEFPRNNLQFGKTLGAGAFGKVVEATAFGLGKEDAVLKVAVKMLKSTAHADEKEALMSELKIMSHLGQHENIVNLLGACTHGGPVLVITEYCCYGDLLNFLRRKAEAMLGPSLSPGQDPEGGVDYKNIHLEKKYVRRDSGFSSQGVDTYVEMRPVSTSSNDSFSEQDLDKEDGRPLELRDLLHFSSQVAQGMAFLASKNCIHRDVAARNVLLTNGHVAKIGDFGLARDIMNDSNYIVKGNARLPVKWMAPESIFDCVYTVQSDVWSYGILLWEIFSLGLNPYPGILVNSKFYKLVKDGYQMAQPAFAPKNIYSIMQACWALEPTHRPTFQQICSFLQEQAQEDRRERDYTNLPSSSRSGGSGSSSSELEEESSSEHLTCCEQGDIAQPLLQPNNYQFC
Src, sequence (P12931 whole entry): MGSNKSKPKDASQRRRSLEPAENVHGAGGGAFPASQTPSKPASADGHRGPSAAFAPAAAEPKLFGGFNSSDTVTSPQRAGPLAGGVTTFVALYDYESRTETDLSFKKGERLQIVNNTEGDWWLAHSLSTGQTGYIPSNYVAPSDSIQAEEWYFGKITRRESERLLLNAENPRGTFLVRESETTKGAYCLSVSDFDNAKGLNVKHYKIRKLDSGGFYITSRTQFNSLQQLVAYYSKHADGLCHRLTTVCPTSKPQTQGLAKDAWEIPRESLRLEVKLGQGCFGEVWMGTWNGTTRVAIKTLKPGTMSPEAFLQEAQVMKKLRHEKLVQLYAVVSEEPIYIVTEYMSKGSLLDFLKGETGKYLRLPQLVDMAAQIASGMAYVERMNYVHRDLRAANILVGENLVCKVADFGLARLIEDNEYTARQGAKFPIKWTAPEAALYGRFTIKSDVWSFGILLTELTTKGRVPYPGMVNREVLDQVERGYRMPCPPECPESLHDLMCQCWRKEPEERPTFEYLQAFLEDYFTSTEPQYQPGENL
B-Raf V600E, sequence (P15056 whole entry V600E): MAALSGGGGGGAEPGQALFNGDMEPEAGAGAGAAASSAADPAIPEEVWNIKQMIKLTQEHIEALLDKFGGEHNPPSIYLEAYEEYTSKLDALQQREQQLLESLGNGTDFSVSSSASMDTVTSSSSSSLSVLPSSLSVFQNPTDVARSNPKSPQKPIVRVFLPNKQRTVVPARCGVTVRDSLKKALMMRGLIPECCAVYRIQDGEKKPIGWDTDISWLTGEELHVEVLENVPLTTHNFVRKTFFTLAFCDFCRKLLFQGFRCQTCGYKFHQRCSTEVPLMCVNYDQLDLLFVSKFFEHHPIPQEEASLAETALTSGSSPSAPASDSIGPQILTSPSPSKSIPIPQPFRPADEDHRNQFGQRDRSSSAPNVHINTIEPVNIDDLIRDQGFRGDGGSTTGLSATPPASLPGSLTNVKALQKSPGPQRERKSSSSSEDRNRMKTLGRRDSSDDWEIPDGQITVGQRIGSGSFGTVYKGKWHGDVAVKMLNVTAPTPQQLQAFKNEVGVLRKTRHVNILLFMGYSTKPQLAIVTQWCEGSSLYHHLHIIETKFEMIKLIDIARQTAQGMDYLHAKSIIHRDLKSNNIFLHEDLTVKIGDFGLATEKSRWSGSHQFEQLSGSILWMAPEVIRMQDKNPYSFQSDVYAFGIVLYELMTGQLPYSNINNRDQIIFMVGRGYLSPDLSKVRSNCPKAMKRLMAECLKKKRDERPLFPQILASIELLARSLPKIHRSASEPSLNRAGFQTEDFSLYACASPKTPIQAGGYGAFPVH
c-Raf-1, sequence (P04049 whole entry): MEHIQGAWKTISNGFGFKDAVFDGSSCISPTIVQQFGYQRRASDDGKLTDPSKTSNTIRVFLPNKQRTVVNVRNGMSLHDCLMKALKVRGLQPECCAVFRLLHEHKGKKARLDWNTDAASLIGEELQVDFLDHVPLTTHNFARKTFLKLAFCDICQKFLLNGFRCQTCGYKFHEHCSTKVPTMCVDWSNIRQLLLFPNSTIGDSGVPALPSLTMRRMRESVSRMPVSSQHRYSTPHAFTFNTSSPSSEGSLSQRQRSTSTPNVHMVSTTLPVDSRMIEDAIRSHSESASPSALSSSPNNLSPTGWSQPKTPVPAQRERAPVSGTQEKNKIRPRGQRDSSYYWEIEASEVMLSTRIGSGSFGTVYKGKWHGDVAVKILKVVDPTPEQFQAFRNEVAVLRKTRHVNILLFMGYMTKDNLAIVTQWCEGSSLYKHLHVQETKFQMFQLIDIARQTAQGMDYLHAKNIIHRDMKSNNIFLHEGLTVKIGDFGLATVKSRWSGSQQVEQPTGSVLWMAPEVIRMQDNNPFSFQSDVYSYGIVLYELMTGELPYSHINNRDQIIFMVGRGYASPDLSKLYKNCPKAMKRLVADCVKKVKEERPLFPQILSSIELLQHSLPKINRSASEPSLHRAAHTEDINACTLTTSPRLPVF
B-Raf, sequence (P15056 whole entry): as the sequence (P15056 whole entry V600E) above, with E600V counted along it
Kdr, sequence (P35968 20-1356): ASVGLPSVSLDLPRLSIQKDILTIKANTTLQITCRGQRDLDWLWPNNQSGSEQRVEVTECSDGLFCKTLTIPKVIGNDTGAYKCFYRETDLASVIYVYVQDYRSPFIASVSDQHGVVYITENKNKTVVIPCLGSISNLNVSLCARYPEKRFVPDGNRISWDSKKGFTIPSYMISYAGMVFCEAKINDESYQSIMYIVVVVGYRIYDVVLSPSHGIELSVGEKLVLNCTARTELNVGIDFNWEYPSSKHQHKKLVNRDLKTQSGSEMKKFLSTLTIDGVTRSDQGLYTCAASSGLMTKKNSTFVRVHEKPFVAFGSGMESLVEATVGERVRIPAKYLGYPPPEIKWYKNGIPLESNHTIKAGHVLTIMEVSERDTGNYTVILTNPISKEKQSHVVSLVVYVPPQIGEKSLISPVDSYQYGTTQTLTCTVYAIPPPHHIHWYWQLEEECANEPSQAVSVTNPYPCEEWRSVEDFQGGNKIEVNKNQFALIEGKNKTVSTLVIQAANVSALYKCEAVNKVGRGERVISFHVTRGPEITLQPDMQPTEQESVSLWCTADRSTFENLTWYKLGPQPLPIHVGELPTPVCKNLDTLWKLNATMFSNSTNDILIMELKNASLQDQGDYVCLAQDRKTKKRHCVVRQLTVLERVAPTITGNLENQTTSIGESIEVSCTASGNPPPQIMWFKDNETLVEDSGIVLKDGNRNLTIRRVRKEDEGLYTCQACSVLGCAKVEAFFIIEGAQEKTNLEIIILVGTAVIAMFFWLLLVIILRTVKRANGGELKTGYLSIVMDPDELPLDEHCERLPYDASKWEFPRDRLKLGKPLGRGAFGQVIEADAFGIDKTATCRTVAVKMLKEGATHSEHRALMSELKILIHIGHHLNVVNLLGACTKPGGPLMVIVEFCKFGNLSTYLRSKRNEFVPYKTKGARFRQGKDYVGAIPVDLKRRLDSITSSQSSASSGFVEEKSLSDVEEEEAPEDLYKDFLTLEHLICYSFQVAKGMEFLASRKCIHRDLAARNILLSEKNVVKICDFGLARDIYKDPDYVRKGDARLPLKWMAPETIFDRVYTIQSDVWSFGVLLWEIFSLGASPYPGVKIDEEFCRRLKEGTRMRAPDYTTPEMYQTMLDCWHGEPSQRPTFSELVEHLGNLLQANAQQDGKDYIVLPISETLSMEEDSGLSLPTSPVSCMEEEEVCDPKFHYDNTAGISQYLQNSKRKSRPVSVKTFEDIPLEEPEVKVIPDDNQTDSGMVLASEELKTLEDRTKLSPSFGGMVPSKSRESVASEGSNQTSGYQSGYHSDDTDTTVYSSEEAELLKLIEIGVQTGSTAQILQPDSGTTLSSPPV

O=C(c1c(F)ccc(NS(=O)(=O)c2csc3ccccc23)c1F)c1c[nH]c2ncc(Cl)cc12 [Compound P-0001, Benzo[b]thiophene-3-sulfonic acid [3-(5-chloro-1H-pyrrolo[2,3-b]pyridine-3-carbonyl)-2,4-difluoro-phenyl]-amide]
not listed: Src
≥ 5.00: all other assays above

O=C(O)c1cccc(S(=O)(=O)Nc2ccc(F)c(C(=O)c3c[nH]c4ncc(Cl)cc34)c2F)c1 [Compound P-0004, 3-[3-(5-Chloro-1H-pyrrolo[2,3-b]pyridine-3-carbonyl)-2,4-difluoro-phenylsulfamoyl]-benzoic acid]
≥ 5.00: Kdr | Src

CCCCOc1ccc(S(=O)(=O)Nc2ccc(F)c(C(=O)c3c[nH]c4ncc(Cl)cc34)c2F)cc1 [Compound P-0007, 4-Butoxy-N-[3-(5-chloro-1H-pyrrolo[2,3-b]pyridine-3-carbonyl)-2,4-difluoro-phenyl]-benzenesulfonamide]
≥ 5.00: Kit | B-Raf V600E | B-Raf | c-Raf-1

O=C(c1c(F)ccc(NS(=O)(=O)c2ccc(-n3cccn3)cc2)c1F)c1c[nH]c2ncc(Cl)cc12 [Compound P-0008, N-[3-(5-Chloro-1H-pyrrolo[2,3-b]pyridine-3-carbonyl)-2,4-difluoro-phenyl]-4-pyrazol-1-yl-benzenesulfonamide]
≥ 5.00: Kit | Kdr | Src | c-Raf-1

O=C(c1c(F)ccc(NS(=O)(=O)c2ccc3ncsc3c2)c1F)c1c[nH]c2ncc(Cl)cc12 [Compound P-0009, Benzothiazole-6-sulfonic acid [3-(5-chloro-1H-pyrrolo[2,3-b]pyridine-3-carbonyl)-2,4-difluoro-phenyl]-amide]
not listed: Kdr
≥ 5.00: all other assays above

Cn1cc(S(=O)(=O)Nc2ccc(F)c(C(=O)c3c[nH]c4ncc(Cl)cc34)c2F)c(C(F)(F)F)n1 [Compound P-0010, 1-Methyl-3-trifluoromethyl-1H-pyrazole-4-sulfonic acid [3-(5-chloro-1H-pyrrolo[2,3-b]pyridine-3-carbonyl)-2,4-difluoro-phenyl]-amide]
≥ 5.00: Kit | Kdr | Fms | Src

CC(C)(C)c1ccc(S(=O)(=O)Nc2ccc(F)c(C(=O)c3c[nH]c4ncc(Cl)cc34)c2F)cc1 [Compound P-0014, 4-tert-Butyl-N-[3-(5-chloro-1H-pyrrolo[2,3-b]pyridine-3-carbonyl)-2,4-difluoro-phenyl]-benzenesulfonamide]
not listed: Src
≥ 5.00: all other assays above

CCCc1ccc(S(=O)(=O)Nc2ccc(F)c(C(=O)c3c[nH]c4ncc(Cl)cc34)c2F)cc1 [Compound P-0015, N-[3-(5-Chloro-1H-pyrrolo[2,3-b]pyridine-3-carbonyl)-2,4-difluoro-phenyl]-4-propyl-benzenesulfonamide]
not listed: Kdr
≥ 5.00: all other assays above

Cc1ccc2sc(S(=O)(=O)Nc3ccc(F)c(C(=O)c4c[nH]c5ncc(Cl)cc45)c3F)cc2c1 [Compound P-0017, 5-Methyl-benzo[b]thiophene-2-sulfonic acid [3-(5-chloro-1H-pyrrolo[2,3-b]pyridine-3-carbonyl)-2,4-difluoro-phenyl]-amide]
not listed: Kdr | Fms
≥ 5.00: all other assays above

COCCOc1cnc2[nH]cc(C(=O)c3c(F)ccc(NS(=O)(=O)c4ccc(C(C)C)cc4)c3F)c2c1 [Compound P-0018, N-{2,4-Difluoro-3-[5-(2-methoxy-ethoxy)-1H-pyrrolo[2,3-b]pyridine-3-carbonyl]-phenyl}-4-isopropyl-benzenesulfonamide]
not listed: Fms | B-Raf V600E
≥ 5.00: all other assays above

CCCc1ccc(S(=O)(=O)Nc2ccc(F)c(C(=O)c3c[nH]c4ncc(-c5ncc(C)n5C)cc34)c2F)cc1 [Compound P-0027, N-{3-[5-(1,5-Dimethyl-1H-imidazol-2-yl)-1H-pyrrolo[2,3-b]pyridine-3-carbonyl]-2,4-difluoro-phenyl}-4-propyl-benzenesulfonamide]
≥ 5.00: Kit | Kdr | Fms | B-Raf

Cc1ccc(S(=O)(=O)Nc2ccc(F)c(C(=O)c3c[nH]c4ncc(Cl)cc34)c2F)s1 [Compound P-0028, 5-Methyl-thiophene-2-sulfonic acid [3-(5-chloro-1H-pyrrolo[2,3-b]pyridine-3-carbonyl)-2,4-difluoro-phenyl]-amide]
not listed: c-Raf-1
≥ 5.00: all other assays above

Cn1ccc(S(=O)(=O)Nc2ccc(F)c(C(=O)c3c[nH]c4ncc(Cl)cc34)c2F)n1 [Compound P-0029, 1-Methyl-1H-pyrazole-3-sulfonic acid [3-(5-chloro-1H-pyrrolo[2,3-b]pyridine-3-carbonyl)-2,4-difluoro-phenyl]-amide]
≥ 5.00: Kit | Kdr | B-Raf V600E | Src

Cc1cnc2[nH]cc(C(=O)c3c(F)ccc(NS(=O)(=O)c4ccc(C(F)(F)F)cc4)c3F)c2c1 [Compound P-0030, N-[2,4-Difluoro-3-(5-methyl-1H-pyrrolo[2,3-b]pyridine-3-carbonyl)-phenyl]-4-trifluoromethyl-benzenesulfonamide]
≥ 5.00: B-Raf V600E | B-Raf | c-Raf-1

COC(=O)/C=C/c1cnc2[nH]cc(C(=O)c3c(F)ccc(NS(=O)(=O)c4ccc(C(F)(F)F)cc4)c3F)c2c1 [Compound P-0032, (E)-3-{3-[2,6-Difluoro-3-(4-trifluoromethyl-benzenesulfonylamino)-benzoyl]-1H-pyrrolo[2,3-b]pyridin-5-yl}-acrylic acid methyl ester]
≥ 5.00: Kit | Kdr | B-Raf V600E | B-Raf

COC(=O)CCc1cnc2[nH]cc(C(=O)c3c(F)ccc(NS(=O)(=O)c4ccc(C(F)(F)F)cc4)c3F)c2c1 [Compound P-0033, 3-{3-[2,6-difluoro-3-(4-trifluoromethyl-benzenesulfonylamino)-benzoyl]-1H-pyrrolo[2,3-b]pyridin-5-yl}-propionic acid methyl ester]
≥ 5.00: B-Raf V600E | B-Raf

O=C(O)CCc1cnc2[nH]cc(C(=O)c3c(F)ccc(NS(=O)(=O)c4ccc(C(F)(F)F)cc4)c3F)c2c1 [Compound P-0034, 3-{3-[2,6-difluoro-3-(4-trifluoromethyl-benzenesulfonylamino)-benzoyl]-1H-pyrrolo[2,3-b]pyridin-5-yl}-propionic acid]
≥ 5.00: Kdr | B-Raf V600E | B-Raf

CCNC(=O)CCc1cnc2[nH]cc(C(=O)c3c(F)ccc(NS(=O)(=O)c4ccc(C(F)(F)F)cc4)c3F)c2c1 [Compound P-0035, 3-{3-[2,6-Difluoro-3-(4-trifluoromethyl-benzenesulfonylamino)-benzoyl]-1H-pyrrolo[2,3-b]pyridin-5-yl}-N-ethyl-propionamide]
≥ 5.00: Kit | Fms | B-Raf V600E | B-Raf

COc1cnc2[nH]cc(C(=O)c3c(F)ccc(NS(=O)(=O)c4ccccn4)c3F)c2c1 [Compound P-0036, Pyridine-2-sulfonic acid [2,4-difluoro-3-(5-methoxy-1H-pyrrolo[2,3-b]pyridine-3-carbonyl)-phenyl]-amide]
≥ 5.00: Src | B-Raf
